Measurements: EP2982368A1, “Small molecule compounds displacing focal adhesion core components” (Universität Konstanz, priority 2014, dated 2016)
“Also recorded” adds a separate entry of the source.

Key:
[1] = molecular target: T1, FAK/Paxillin (Mus musculus, UniProt P34152+Q8VI36); experiment: FAK/Paxillin displacement by structurally related compounds (FootLocker series, confocal microscopy); assay type: cell-based
T1 construct: expressed in transfected cells; host or cells: mouse fibroblasts stably expressing GFP-FAK
T1 sequence (P34152 whole entry): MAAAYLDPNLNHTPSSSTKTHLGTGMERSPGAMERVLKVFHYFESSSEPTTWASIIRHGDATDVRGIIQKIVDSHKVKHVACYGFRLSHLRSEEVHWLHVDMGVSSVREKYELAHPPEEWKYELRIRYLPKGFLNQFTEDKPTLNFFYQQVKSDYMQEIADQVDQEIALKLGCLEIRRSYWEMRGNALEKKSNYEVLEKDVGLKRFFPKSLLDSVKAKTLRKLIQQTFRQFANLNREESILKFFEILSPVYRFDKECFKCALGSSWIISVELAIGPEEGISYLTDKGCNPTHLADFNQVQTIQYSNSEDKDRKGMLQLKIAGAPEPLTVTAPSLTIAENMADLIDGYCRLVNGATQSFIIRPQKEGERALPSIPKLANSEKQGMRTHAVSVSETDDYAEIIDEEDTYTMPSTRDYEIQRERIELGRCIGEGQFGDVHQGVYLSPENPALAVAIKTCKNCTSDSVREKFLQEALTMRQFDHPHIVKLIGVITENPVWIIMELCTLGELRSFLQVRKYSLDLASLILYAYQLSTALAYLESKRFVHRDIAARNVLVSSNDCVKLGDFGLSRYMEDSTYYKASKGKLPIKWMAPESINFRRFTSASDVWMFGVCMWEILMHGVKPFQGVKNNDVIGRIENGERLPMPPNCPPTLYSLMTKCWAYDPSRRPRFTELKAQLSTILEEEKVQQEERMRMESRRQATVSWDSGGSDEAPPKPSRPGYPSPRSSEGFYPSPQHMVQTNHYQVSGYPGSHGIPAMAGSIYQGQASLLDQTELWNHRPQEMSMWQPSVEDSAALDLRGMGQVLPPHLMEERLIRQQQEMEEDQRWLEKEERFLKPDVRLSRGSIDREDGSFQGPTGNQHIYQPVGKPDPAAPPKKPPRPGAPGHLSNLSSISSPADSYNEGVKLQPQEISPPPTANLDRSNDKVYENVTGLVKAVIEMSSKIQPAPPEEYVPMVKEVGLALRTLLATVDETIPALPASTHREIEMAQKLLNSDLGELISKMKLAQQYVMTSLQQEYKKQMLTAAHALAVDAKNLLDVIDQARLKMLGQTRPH
T1 sequence (Q8VI36 whole entry): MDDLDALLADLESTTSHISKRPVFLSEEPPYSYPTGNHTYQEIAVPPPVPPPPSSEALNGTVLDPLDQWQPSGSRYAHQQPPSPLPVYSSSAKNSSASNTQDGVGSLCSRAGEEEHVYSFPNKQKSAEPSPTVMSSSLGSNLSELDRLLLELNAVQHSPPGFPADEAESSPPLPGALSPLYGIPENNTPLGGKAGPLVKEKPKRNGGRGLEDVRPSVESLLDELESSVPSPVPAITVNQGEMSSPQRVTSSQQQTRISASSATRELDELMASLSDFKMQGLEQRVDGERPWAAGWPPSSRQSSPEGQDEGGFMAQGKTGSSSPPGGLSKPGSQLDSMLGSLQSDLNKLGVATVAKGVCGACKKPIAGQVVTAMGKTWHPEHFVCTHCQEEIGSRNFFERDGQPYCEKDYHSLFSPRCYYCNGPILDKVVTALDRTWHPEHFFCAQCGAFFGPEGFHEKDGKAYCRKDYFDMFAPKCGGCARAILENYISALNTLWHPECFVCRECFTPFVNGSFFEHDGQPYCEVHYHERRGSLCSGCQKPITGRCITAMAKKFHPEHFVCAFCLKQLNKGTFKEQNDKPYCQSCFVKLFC
Protocol: To determine whether compounds structurally related to Mb31 and Mb36 are likewise suitable to interfere with FAK localization at focal adhesions, mouse fibroblasts stably expressing GFP-FAK were treated for 30 min with 1, 10 or 20 µM of the following compounds: trans-3-hydroxy-β-nitrostyrene (THBN), trans-4-Chloro-β-nitrostyrene (T4CN), trans-β-nitrostyrene (TBN), 4-chlorocinnamic acid (4CA), and trans-3-(4-bromothiophen-2-yl)acrylic acid (T34BA) (Figures 16 and 17). The cells were analyzed by confocal microscopy for GFP-FAK localization. DMSO treatment served as a vehicle control. […] Additional substituents at the aromatic structures, such as halogen atoms or hydroxy groups may contribute to the reactivity of the compound, but are not essential. Based on these findings, the inventors have extended their structure activity-relationship studies and synthesized additional related compounds, which, similar to Mb31, displace FAK and paxillin at concentrations below 10µM (++), displace FAK and paxillin at concentrations above 10 µM (+), or lack FAK and paxillin displacing activity (-). All these substances were then also nicknamed in the FLocker terminology, resulting in FLocker1 - FLocker24 (Table 2). Table 2: Overview of FootLocker nomenclature, their chemical notation/structure and the activity towards FAK/Paxillin displacement

[2] = system: GFP-FAK mouse embryonic fibroblasts; experiment: MTT assay (cell viability); assay type: cell-based; conditions: 5 h compound exposure
Protocol: Image J was used to automatically quantify FAK-containing focal adhesions due to local maxima of fluorescence intensity in the GFP-channel (5 to 70 pixel). The number of cells was automatically counted in the Hoechst channel. To test reproducibility of the system 40 control wells were quantified wherein four positions for each well were imaged. […] GFP-FAK mouse embryonic fibroblasts were seeded on fibronectin and incubated for 1 h with the indicated concentrations of the small compounds, respectively. […] GFP-FAK mouse embryonic fibroblasts were seeded on fibronectin and serum-starved overnight. The indicated concentrations of Mb31 were applied for 30 min. Cells were lysed and analyzed for paxillin and FAK protein level as well as FAK Tyr397 phosphorylation. […] The purified kinase domain of FAK was incubated with increasing amounts of Mb31 for 1 h at 30°C together with poly-Glu-Tyr as a FAK substrate. […] Cell viability was assessed by MTT assay. […] Migration was recorded from cells that were cultured without serum (A), with serum (B) or with serum in the presence of 3 µM Mb31 (C). […] Mouse embryonic fibroblasts (MEFs) were transfected with talin-mCherry and talin dynamics analyzed in focal adhesions using fluorescence recovery after photobleaching (FRAP). […] (C) Wound closure was microscopically analyzed and evaluated using ImageJ software. […]

SMILES | compounds showing the most prominent effect on protein-protein interactions at focal adhesion site [1] | disruption of protein-protein interactions at focal adhesion site [1] | cell viability / toxicity ([2]; listed as Mb31) | cell viability / toxicity [2]
O=[N+]([O-])C=Cc1cc(Br)cs1 [FootLocker 1, 4-bromo-2-(2-nitrovinyl)thiophene] | most prominent effect | efficiently disrupt protein-protein interactions at focal adhesion site | do not impair cell viability; also recorded: minor toxicity | –
Nc1ccc(SC(C[N+](=O)[O-])c2ccc(Cl)cc2)cc1 (stereo not drawn) [FootLocker 2, 4-{[1-(4-chlorophenyl)-2-nitroethyl]thio}aniline] | most prominent effect | efficiently disrupt protein-protein interactions at focal adhesion site | – | do not impair cell viability
